Test results as given in article PMC11855086, “Synthesis, Antimicrobial Activity, and Tyrosinase Inhibition by Multifunctional 3,4-Dihydroxy-Phenyl Peptidomimetics” (International Journal of Molecular Sciences, 2025).
Values after ≈ are worked out from the molar mass of the structure shown.

Columns and labels:
E. cloacae (ATCC 49141) = test: MIC and MBC, microtiter plate technique; format: cell-based; conditions: ATCC49141, Enterobacter cloacae; for MIC: 24 h, resazurin; for MBC: TTC
E. coli R3 (ATCC 11775) = test: MIC and MBC, microtiter plate technique; format: cell-based; conditions: Escherichia coli; for MIC: ATCC11775, 24 h, resazurin; for MBC: ATCC11775, TTC
E. coli K12 (ATCC 25404) = test: MIC and MBC, microtiter plate technique; format: cell-based; conditions: Escherichia coli; for MBC: ATCC25404; for MIC: ATCC25404, 24 h
[1] = system: P. aeruginosa (ATCC 15442); test: MIC and MBC, microtiter plate technique; format: cell-based; conditions: ATCC15442, Pseudomonas aeruginosa; for MIC: 24 h, resazurin; for MBC: TTC
E. coli R2 (ATCC 39544) = test: MIC and MBC, microtiter plate technique; format: cell-based; conditions: Escherichia coli; for MBC: ATCC39544; for MIC: ATCC39544, 24 h
[2] = target: T1, mushroom tyrosinase (mTYR) (Agaricus bisporus, UniProt C7FF04); test: Tyrosinase assay with L-DOPA as substrate (absorbance at 475 nm); format: biochemical; conditions: 100 µM compound
T1 construct: purchased Sigma-Aldrich (Poznan, Poland); host or cells: Agaricus bisporus (extracted natural enzyme)
T1 sequence (C7FF04 1-392 limits assumed): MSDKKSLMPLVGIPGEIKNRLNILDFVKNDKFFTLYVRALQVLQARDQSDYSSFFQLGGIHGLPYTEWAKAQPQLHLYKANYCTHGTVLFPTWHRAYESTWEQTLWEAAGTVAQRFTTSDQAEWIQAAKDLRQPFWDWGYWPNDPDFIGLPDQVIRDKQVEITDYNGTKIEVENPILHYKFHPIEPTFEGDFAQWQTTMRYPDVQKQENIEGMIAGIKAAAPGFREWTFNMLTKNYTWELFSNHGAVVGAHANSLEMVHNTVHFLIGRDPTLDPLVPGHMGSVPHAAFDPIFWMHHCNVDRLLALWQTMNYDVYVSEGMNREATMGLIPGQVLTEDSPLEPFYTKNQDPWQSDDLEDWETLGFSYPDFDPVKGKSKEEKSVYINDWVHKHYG
Text: Tyrosinase (Tyr) extracted from Agaricus bisporus (mushroom tyrosinase, mTYR) is commonly used as a model enzyme for human Tyr due to its high purity, stability, and commercial availability. It is frequently used in the selection of TYR inhibitors. Following established literature protocols, L-tyrosine and L-DOPA, which serve as substrates for monophenol and diphenol oxidation, respectively, were used to assess the tyrosinase inhibitory activity of synthesized target compounds [21].
Tyrosinase (Tyr) activity was measured using L-DOPA as substrate and phosphate buffer solution (PBS) as blank control, following the method described by Min He et al. (2022) with an ultraviolet spectrophotometer (Carry-300, Agilent Life Sciences and Chemical Analysis, Santa Clara, CA, USA). […] Before the experiment, 2.9 mL of PBS and 0.1 mL of DMSO were used to account for the influence of the background solvent. The inhibitor solution (100 µL), substrate solution (2.8 mL), and Tyr solution (100 µL) were then added to a quartz colorimetric cuvette. After a one-minute mixing period, the absorption spectra of the mixture were continuously recorded at 475 nm using the UV spectrophotometer (Carry-300) for 5 min over a period of every 30 s. The tyrosinase inhibition rate was calculated as follows:Relative enzyme activity (%) = (A1 − A2)/A1 × 100
A1 = Absorbance of L-DOPA and inhibitor.
A2 = Absorbance of L-DOPA, inhibitor, and tyrosinase.

S. aureus (ATCC 23235) = test: microbe, parasite or virus in culture; format: cell-based; conditions: Staphylococcus aureus; for MBC: ATCC23235; for MIC: ATCC23235, 24 h
[3] = system: A. baumannii (ATCC 17978); test: MIC and MBC, microtiter plate technique; format: cell-based; conditions: ATCC17978, Acinetobacter baumannii; for MIC: 24 h, resazurin; for MBC: TTC
E. coli R4 (ATCC 39543) = test: MIC and MBC, microtiter plate technique; format: cell-based; conditions: Escherichia coli; for MBC: ATCC39543; for MIC: ATCC39543, 24 h

## CCCCN(C(C)=O)C(C(=O)NCc1ccc(F)cc1)c1ccc(O)c(O)c1 (stereo not drawn) [Compound 5r, 2-(N-butylacetamido)-2-(3,4-dihydroxyphenyl)-N-(4-fluorobenzyl)acetamide]
E. cloacae (ATCC 49141)
  MIC: 1.67 µM (≈ 0.649 µg/mL)
  MBC: 1.5 µM (≈ 0.583 µg/mL)
E. coli R3 (ATCC 11775)
  MIC: 2.56 µM (≈ 0.994 µg/mL)
  MBC: 3.14 µM (≈ 1.22 µg/mL)
E. coli K12 (ATCC 25404)
  MBC: 0.94 µM (≈ 0.365 µg/mL)
  MIC: 0.74 µM (≈ 0.287 µg/mL)
[1]
  MIC: 1.64 µM (≈ 0.637 µg/mL)
  MBC: 1.49 µM (≈ 0.579 µg/mL)
E. coli R2 (ATCC 39544)
  MBC: 1.51 µM (≈ 0.587 µg/mL)
  MIC: 1.5 µM (≈ 0.583 µg/mL)
[2]
  inhibition at 100 µM: < 10%
S. aureus (ATCC 23235)
  MBC: 1.54 µM (≈ 0.598 µg/mL)
  MIC: 1.51 µM (≈ 0.587 µg/mL)
[3]
  MIC: 1.26 µM (≈ 0.489 µg/mL)
  MBC: 1.31 µM (≈ 0.509 µg/mL)
E. coli R4 (ATCC 39543)
  MBC: 3.5 µM (≈ 1.36 µg/mL)
  MIC: 3.13 µM (≈ 1.22 µg/mL)

## CC(=O)N(C1CCCCC1)C(C(=O)NCc1ccc(F)cc1)c1ccc(O)c(O)c1 (stereo not drawn) [Compound 5o, 2-(N-cyclohexylacetamido)-2-(3,4-dihydroxyphenyl)-N-(4-fluorobenzyl)acetamide]
E. cloacae (ATCC 49141)
  MIC: 0.8 µM (≈ 0.332 µg/mL)
  MBC: 0.84 µM (≈ 0.348 µg/mL)
E. coli R3 (ATCC 11775)
  MIC: 1.01 µM (≈ 0.419 µg/mL)
  MBC: 1.45 µM (≈ 0.601 µg/mL)
E. coli K12 (ATCC 25404)
  MBC: 0.86 µM (≈ 0.356 µg/mL)
  MIC: 0.3 µM (≈ 0.124 µg/mL)
[1]
  MIC: 0.73 µM (≈ 0.303 µg/mL)
  MBC: 0.86 µM (≈ 0.356 µg/mL)
E. coli R2 (ATCC 39544)
  MBC: 1.23 µM (≈ 0.51 µg/mL)
  MIC: 0.79 µM (≈ 0.327 µg/mL)
[2]
  inhibition at 100 µM: > 10%
S. aureus (ATCC 23235)
  MBC: 0.81 µM (≈ 0.336 µg/mL)
  MIC: 0.74 µM (≈ 0.307 µg/mL)
[3]
  MIC: 0.75 µM (≈ 0.311 µg/mL)
  MBC: 0.81 µM (≈ 0.336 µg/mL)
E. coli R4 (ATCC 39543)
  MBC: 1.47 µM (≈ 0.609 µg/mL)
  MIC: 1.52 µM (≈ 0.63 µg/mL)

## CCCCN(C(=O)Cc1ccccc1)C(C(=O)NCc1ccc(OC)cc1)c1ccc(O)c(O)c1 (stereo not drawn) [Compound 5h]
E. cloacae (ATCC 49141)
  MIC: 0.74 µM (≈ 0.353 µg/mL)
  MBC: 0.73 µM (≈ 0.348 µg/mL)
E. coli R3 (ATCC 11775)
  MIC: 1.07 µM (≈ 0.51 µg/mL)
  MBC: 1.19 µM (≈ 0.567 µg/mL)
E. coli K12 (ATCC 25404)
  MBC: 0.71 µM (≈ 0.338 µg/mL)
  MIC: 0.25 µM (≈ 0.119 µg/mL)
[1]
  MIC: 0.69 µM (≈ 0.329 µg/mL)
  MBC: 0.72 µM (≈ 0.343 µg/mL)
E. coli R2 (ATCC 39544)
  MBC: 1.07 µM (≈ 0.51 µg/mL)
  MIC: 0.86 µM (≈ 0.41 µg/mL)
[2]
  inhibition at 100 µM: < 10%
S. aureus (ATCC 23235)
  MBC: 0.67 µM (≈ 0.319 µg/mL)
  MIC: 0.67 µM (≈ 0.319 µg/mL)
[3]
  MIC: 0.73 µM (≈ 0.348 µg/mL)
  MBC: 0.75 µM (≈ 0.357 µg/mL)
E. coli R4 (ATCC 39543)
  MBC: 1.42 µM (≈ 0.677 µg/mL)
  MIC: 1.36 µM (≈ 0.648 µg/mL)

## O=C(NCc1ccccc1)C(c1ccc(O)c(O)c1)N(C(=O)Cc1ccccc1)C1CCCCC1 (stereo not drawn) [Compound 5d, N-benzyl-2-(N-cyclohexyl-2-phenylacetamido)-2-(3,4-dihydroxyphenyl)acetamide]
E. cloacae (ATCC 49141)
  MIC: 0.68 µM (≈ 0.321 µg/mL)
  MBC: 0.76 µM (≈ 0.359 µg/mL)
E. coli R3 (ATCC 11775)
  MIC: 0.92 µM (≈ 0.435 µg/mL)
  MBC: 1.06 µM (≈ 0.501 µg/mL)
E. coli K12 (ATCC 25404)
  MBC: 0.74 µM (≈ 0.35 µg/mL)
  MIC: 0.36 µM (≈ 0.17 µg/mL)
[1]
  MIC: 0.63 µM (≈ 0.298 µg/mL)
  MBC: 0.74 µM (≈ 0.35 µg/mL)
E. coli R2 (ATCC 39544)
  MBC: 1.07 µM (≈ 0.506 µg/mL)
  MIC: 0.68 µM (≈ 0.321 µg/mL)
[2]
  inhibition at 100 µM: > 10%
S. aureus (ATCC 23235)
  MBC: 0.74 µM (≈ 0.35 µg/mL)
  MIC: 0.68 µM (≈ 0.321 µg/mL)
[3]
  MIC: 0.74 µM (≈ 0.35 µg/mL)
  MBC: 0.75 µM (≈ 0.354 µg/mL)
E. coli R4 (ATCC 39543)
  MBC: 1.29 µM (≈ 0.61 µg/mL)
  MIC: 1.45 µM (≈ 0.685 µg/mL)

## CCCCN(C(=O)Cc1ccccc1)C(C(=O)NCc1ccccc1)c1ccc(O)c(O)c1 (stereo not drawn) [Compound 5g, N-benzyl-2-(N-butyl-2-phenylacetamido)-2-(3,4-dihydroxyphenyl)acetamide]
E. cloacae (ATCC 49141)
  MIC: 0.72 µM (≈ 0.322 µg/mL)
  MBC: 0.77 µM (≈ 0.344 µg/mL)
E. coli R3 (ATCC 11775)
  MIC: 1.02 µM (≈ 0.455 µg/mL)
  MBC: 1.23 µM (≈ 0.549 µg/mL)
E. coli K12 (ATCC 25404)
  MBC: 0.71 µM (≈ 0.317 µg/mL)
  MIC: 0.42 µM (≈ 0.188 µg/mL)
[1]
  MIC: 0.7 µM (≈ 0.313 µg/mL)
  MBC: 0.78 µM (≈ 0.348 µg/mL)
E. coli R2 (ATCC 39544)
  MBC: 1.23 µM (≈ 0.549 µg/mL)
  MIC: 0.94 µM (≈ 0.42 µg/mL)
[2]
  inhibition at 100 µM: > 10%
S. aureus (ATCC 23235)
  MBC: 0.8 µM (≈ 0.357 µg/mL)
  MIC: 0.73 µM (≈ 0.326 µg/mL)
[3]
  MIC: 0.79 µM (≈ 0.353 µg/mL)
  MBC: 0.82 µM (≈ 0.366 µg/mL)
E. coli R4 (ATCC 39543)
  MBC: 1.41 µM (≈ 0.63 µg/mL)
  MIC: 1.5 µM (≈ 0.67 µg/mL)

## CCCCN(C(C)=O)C(C(=O)NCc1ccccc1)c1ccc(O)c(O)c1 (stereo not drawn) [Compound 5p, N-benzyl-2-(N-butylacetamido)-2-(3,4-dihydroxyphenyl)acetamide]
E. cloacae (ATCC 49141)
  MIC: 0.86 µM (≈ 0.319 µg/mL)
  MBC: 0.94 µM (≈ 0.348 µg/mL)
E. coli R3 (ATCC 11775)
  MIC: 1.27 µM (≈ 0.47 µg/mL)
  MBC: 1.64 µM (≈ 0.608 µg/mL)
E. coli K12 (ATCC 25404)
  MBC: 0.89 µM (≈ 0.33 µg/mL)
  MIC: 0.33 µM (≈ 0.122 µg/mL)
[1]
  MIC: 0.88 µM (≈ 0.326 µg/mL)
  MBC: 0.94 µM (≈ 0.348 µg/mL)
E. coli R2 (ATCC 39544)
  MBC: 1.51 µM (≈ 0.559 µg/mL)
  MIC: 0.84 µM (≈ 0.311 µg/mL)
[2]
  inhibition at 100 µM: > 10%
S. aureus (ATCC 23235)
  MBC: 0.94 µM (≈ 0.348 µg/mL)
  MIC: 0.87 µM (≈ 0.322 µg/mL)
[3]
  MIC: 0.87 µM (≈ 0.322 µg/mL)
  MBC: 0.9 µM (≈ 0.333 µg/mL)
E. coli R4 (ATCC 39543)
  MBC: 1.7 µM (≈ 0.63 µg/mL)
  MIC: 1.58 µM (≈ 0.585 µg/mL)
